{"source": "patent US11033603B2", "about": "“Method for treating ocular diseases” (priority 2019, dated 2021)", "key": {"[1]": {"experiment": "Drug observed in the eyes after oral administration (FIG. 3)", "format": "in vivo"}, "[2]": {"tested_on": "naturally-occurring diabetic macular edema in rhesus monkeys", "experiment": "Fundus photography (FP) of NPDR related changes in spontaneous DME rhesus monkeys", "format": "in vivo, Macaca mulatta (Rhesus Macaque)", "excerpt": "(§1) Evaluation of Efficacy of beauvericin at different doses for 60 days on improving naturally-occurring diabetic macular edema in rhesus monkeys, providing a basis for clinical trial dose design and safety study.\n(§2) Macaca mulatta (Rhesus Macaque) are used in the evaluation.\nSecondary Endpoints and Safety Parameters: • (1) Fundus photography (FP). To detect changes of hemorrhage, exudate or vessel lesion before and after treatment; and • (2) Drug effect on metabolism and lipid profiles, liver and kidney function.\nNon-human primates (NHPs) are extremely similar to humans in physiological function and structure of eyes. […]\nInclusion Criteria • (1) Female, age 13-18 years (equals to 40-60 years old in human adults), 6-7 kg; • (2) Diabetic duration: over 3 years; • (3) DME of single/both eyes; • (4) DME: the retinal thickness measured by Heidelberg Spectralis OCT in recent half year and diagnosed by FP/FFA with Kowa VX-20 Fundus Camera; • (5) CRT≥260 μm (Central Foveal Thickness) and/or Average Thickness of ETDRS regions≥319 μm. […] Nondiabetic monkey: Average thickness of the retina in nondiabetic animals was 192±11 μm at the fovea, and 307±15 and 328±13 measured at a distance of 1.5 mm from fovea on the temporal and nasal sides, respectively. […]"}, "[3]": {"tested_on": "VEGF induced angiogenesis", "experiment": "In vivo Matrigel plug angiogenesis assay", "design": "species or system B57l/6 mice", "conditions": "mice; for VEGF induced angiogenesis in Matrigel plugs (images, FIG. 1): plugs taken out on Day 7; for Efficacy in inhibition of VEGF induced angiogenesis by hemoglobin level (FIG. 2), compared with Sorafenib: hemoglobin by Drabkin's reagent kit, Day 7", "excerpt": "In Vivo Matrigel Plug Angiogenesis Assay\nMatrigel plug is made from a gelatinous protein mixture secreted by Engelbreth-Holm-Swarm (EHS) mouse sarcoma cells (produced and marketed by Corning Life Sciences and BD Biosciences). Matrigel resembles the complex extracellular environment found in many tissues and is used by cell biologists as a substrate (basement membrane matrix) for culturing assay.\nThe test animals were 5 to 8-week-aged B57l/6 mice. The Matrigel was mixed with PBS at a ratio of 4:1 to obtain the Matrigel plug. The mice were administered with the Matrigel plugs containing 30 IU heparin and VEGF 150 ng/ml (500 ul/mouse), and then divided into four groups (4 mice in one group), treated with Beauvericin i.p. or orally (GYT-088 Group), Sorafenib (Sorafenib Group) as a positive control, VEGF alone (Vehicle), and without any treatment (Ctrl). After one day, the animals were administered with the sorafenib i.p. at a dosage of 30 mg/kg or Beauvericin i.p. at a dosage of 2.4 mg/kg (0.1c.c./mice/day), or were orally administered with the Beauvericin at a dosage of 24 mg/kg once per day for six days. On Day 7, the animals were sacrificed and the Matrigel plugs were taken out for observation of angiogenesis. The hemoglobin of each mouse was also measured by Drabkin's reagent kit."}, "[4]": {"tested_on": "naturally-occurring diabetic macular edema in rhesus monkeys", "experiment": "Retinal thickness by OCT in spontaneous DME rhesus monkeys", "format": "in vivo, Macaca mulatta (Rhesus Macaque)", "conditions": "for Macular Central Thickness, left eye / Macular Central Thickness, right eye / Fovea Thickness, left eye / Fovea Thickness, right eye: monkey #2003 (NPDR); for Macular Central Thickness, left eye: baseline 204; for Macular Central Thickness, right eye: baseline 210; for Fovea Thickness, left eye: baseline 257; for Fovea Thickness, right eye: baseline 260", "protocol": "as §1, §2\nRetinal Thickness by OCT. To Quantify Retinal Thickness Before and after Treatment.\nRetinal thickness is evaluated by 2 methods using OCT: (1) at the fovea and 1.5 mm on either side of it (three point method), and (2) using a 52-point grid to determine the fraction of macula that had thicknesses in different thickness groupings (250-300, 301-350, 351-400 μm, etc.). This method was developed by the Primed team in collaboration with Prof. Dr. Timothy Kern, a renowned diabetic retinopathy expert from Case Western Reserve University. Refer to the ARVO 2018 Poster. Assessment of macular thickening in spontaneously diabetic rhesus monkeys.\nInclusion Criteria • (1) Female, age 13-18 years (equals to 40-60 years old in human adults), 6-7 kg; • (2) Diabetic duration: over 3 years; • (3) DME of single/both eyes; • (4) DME: the retinal thickness measured by Heidelberg Spectralis OCT in recent half year and diagnosed by FP/FFA with Kowa VX-20 Fundus Camera; • (5) CRT≥260 μm (Central Foveal Thickness) and/or Average Thickness of ETDRS regions≥319 μm. (Retinal Thickening is defined by Mean and SD of CRT and ETDRS thickness of normal monkeys). The retinal thickening is defined as thickness that exceeded the normal mean by 2 standard deviations. Nondiabetic monkey: Average thickness of the retina in nondiabetic animals was 192±11 μm at the fovea, and 307±15 and 328±13 measured at a distance of 1.5 mm from fovea on the temporal and nasal sides, respectively. This method was developed by the Primed team in collaboration with Prof. Dr. Timothy Kern, a renowned diabetic retinopathy expert from Case Western Reserve University. Refer to the ARVO 2018 Poster. Assessment of macular thickening in spontaneously diabetic rhesus monkeys; and • (6) with/without vessel leakage or non-perfusion area.\n6 spontaneous DME rhesus monkeys (with medical record within one year) will be provided and 4 out of 6 monkeys will be enrolled in the Pre-study period (four weeks) for FA, FP, OCT and slit lamp examination as well as blood biochemistry before treatment. 4 Monkeys will be divided into two groups based on retinal thickness by OCT: • (1) Group 1, vehicle group, N=1; • (2) Group 2, test article group, N=3; (Route of administration: oral administration, once a day; Dosage: TBD).\nRetinal thickness includes CST and ETDRS thickness. […]"}, "[5]": {"conditions": "monkey #2003, Day 14 versus baseline"}, "[6]": {"conditions": "monkey #2003, Day 56 versus baseline"}}, "note": "“Also recorded” adds a separate entry of the source."}
{"smiles": "CC(C)[C@H]1OC(=O)[C@H](Cc2ccccc2)N(C)C(=O)[C@@H](C(C)C)OC(=O)[C@H](Cc2ccccc2)N(C)C(=O)[C@@H](C(C)C)OC(=O)[C@H](Cc2ccccc2)N(C)C1=O", "note": "[GYT-088, beauvericin]", "values": [{"measurement": "Crossing of blood-brain barrier (BBB) and blood-retinal barrier (BRB) into extravascular space of retina and vitreous body", "setting": "[1]", "result": "can be cross the blood-brain barrier (BBB) and particularly the blood-retinal barrier (BRB)"}, {"measurement": "Presence of test drug in the eyes of the animal", "setting": "[1]", "result": "observed in the eyes"}, {"measurement": "NPDR related changes, FP", "setting": "[2]; monkey #2003, D28, oral, once a day, baseline: hemorrhages", "result": "improved"}, {"measurement": "NPDR changes before and after dosing by FP", "setting": "[2]; other animals of GYT-088 group (not #2003), any time points", "result": "No significant changes"}, {"measurement": "VEGF induced angiogenesis in Matrigel plugs (images, FIG. 1)", "setting": "[3]; Beauvericin i.p. 2.4 mg/kg once per day for six days", "result": "inhibited"}, {"measurement": "Efficacy in inhibition of VEGF induced angiogenesis by hemoglobin level (FIG. 2), compared with Sorafenib", "setting": "[3]; listed as Beauvericin", "result": "higher efficacy"}, {"measurement": "Efficacy in inhibition of VEGF induced angiogenesis by hemoglobin level (FIG. 2), compared with Sorafenib", "setting": "[3]; listed as beauvericin", "result": "higher efficacy; also recorded: even better than Sorafenib"}, {"measurement": "Macular Central Thickness, left eye", "setting": "[4]; D14", "result": 197, "unit": "μm"}, {"measurement": "Macular Central Thickness, right eye", "setting": "[4]; D14", "result": 202, "unit": "μm"}, {"measurement": "Fovea Thickness, left eye", "setting": "[4]; D14", "result": 249, "unit": "μm"}, {"measurement": "Fovea Thickness, right eye", "setting": "[4]; D14", "result": 251, "unit": "μm"}, {"measurement": "Macular Central Thickness, left eye", "setting": "[4]; D28", "result": 199, "unit": "μm"}, {"measurement": "Macular Central Thickness, right eye", "setting": "[4]; D28", "result": 206, "unit": "μm"}, {"measurement": "Fovea Thickness, left eye", "setting": "[4]; D28", "result": 253, "unit": "μm"}, {"measurement": "Fovea Thickness, right eye", "setting": "[4]; D28", "result": 255, "unit": "μm"}, {"measurement": "Macular Central Thickness, left eye", "setting": "[4]; D56 (Double dosing)", "result": 200, "unit": "μm"}, {"measurement": "Macular Central Thickness, right eye", "setting": "[4]; D56 (Double dosing)", "result": 202, "unit": "μm"}, {"measurement": "Fovea Thickness, left eye", "setting": "[4]; D56 (Double dosing)", "result": 254, "unit": "μm"}, {"measurement": "Fovea Thickness, right eye", "setting": "[4]; D56 (Double dosing)", "result": 255, "unit": "μm"}, {"measurement": "Reduction of central macular thickness (CMT), left eye", "setting": "[4]; [5]", "result": 7, "unit": "μm"}, {"measurement": "Reduction of central macular thickness (CMT), right eye", "setting": "[4]; [5]", "result": 8, "unit": "μm"}, {"measurement": "Reduction of fovea thickness, left eye", "setting": "[4]; [5]", "result": 8, "unit": "μm"}, {"measurement": "Reduction of fovea thickness, right eye", "setting": "[4]; [5]", "result": 9, "unit": "μm"}, {"measurement": "Reduction of central macular thickness, left eye", "setting": "[4]; [6]", "result": 6, "unit": "μm"}, {"measurement": "Reduction of central macular thickness, right eye", "setting": "[4]; [6]", "result": 8, "unit": "μm"}, {"measurement": "Reduction of macular thickness, left eye", "setting": "[4]; [6]", "result": 3, "unit": "μm"}, {"measurement": "Reduction of macular thickness, right eye", "setting": "[4]; [6]", "result": 5, "unit": "μm"}, {"measurement": "Efficacy in Diabetic Macular Edema (conclusion)", "setting": "[4]; rhesus monkeys, oral, once a day", "result": "provided an efficacy in Diabetic Macular Edema"}]}
{"smiles": "CNC(=O)c1cc(Oc2ccc(NC(=O)Nc3ccc(Cl)c(C(F)(F)F)c3)cc2)ccn1", "note": "[Sorafenib, reference compound]", "values": [{"measurement": "VEGF induced angiogenesis in Matrigel plugs (images, FIG. 1)", "setting": "[3]; Sorafenib i.p. 30 mg/kg, positive control", "result": "inhibited"}]}
